Data published in BindingDB's records for doi:10.7270/Q2FF3QRT (University of Pittsburgh, 2006).

Biological target: T1, M-phase inducer phosphatase 2 (Homo sapiens, UniProt P30305)
T1 sequence (P30305 whole entry): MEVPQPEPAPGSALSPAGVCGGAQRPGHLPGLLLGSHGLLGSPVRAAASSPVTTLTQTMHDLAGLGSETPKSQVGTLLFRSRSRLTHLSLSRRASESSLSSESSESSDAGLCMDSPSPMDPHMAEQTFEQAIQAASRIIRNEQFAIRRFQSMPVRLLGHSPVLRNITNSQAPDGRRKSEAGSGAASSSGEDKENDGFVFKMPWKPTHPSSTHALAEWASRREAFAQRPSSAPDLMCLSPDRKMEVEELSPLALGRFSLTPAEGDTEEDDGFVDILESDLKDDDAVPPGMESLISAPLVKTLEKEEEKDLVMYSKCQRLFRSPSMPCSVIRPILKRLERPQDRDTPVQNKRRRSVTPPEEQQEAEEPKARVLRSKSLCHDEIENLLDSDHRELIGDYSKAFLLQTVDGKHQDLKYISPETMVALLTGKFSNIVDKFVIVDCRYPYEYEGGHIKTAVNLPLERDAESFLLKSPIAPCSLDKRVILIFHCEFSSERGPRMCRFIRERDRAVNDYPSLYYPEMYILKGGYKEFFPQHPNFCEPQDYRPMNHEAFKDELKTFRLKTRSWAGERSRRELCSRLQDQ
Assay: Cdc25B phosphatase inhibitors, confirmation, selectivity assay, biochemical, catalytic domain, dose response (AID 443)

IC50 | Compound
10.6 µM | Cc1ccc2c(c1C)NC(C(=O)O)C1CC=CC21 (stereo not given)
13.1 µM | CC(C)Cn1c(N)c(C(=O)COC(=O)c2cc(-c3ccco3)nc3ccccc23)c(=O)n(C)c1=O [2-(2-furanyl)-4-quinolinecarboxylic acid [2-[4-amino-1-methyl-3-(2-methylpropyl)-2,6-dioxo-5-pyrimidinyl]-2-oxoethyl] ester]
43.1 µM | CCCCC[C@H](O)C=C[C@H]1C=CC(=O)[C@@H]1C/C=C\CCCC(=O)O [(Z)-7-[(1R,5S)-2-oxidanylidene-5-[(E,3S)-3-oxidanyloct-1-enyl]cyclopent-3-en-1-yl]hept-5-enoic acid]
31.5 µM | COc1ccc(Cn2c(C)nc3c(c2=O)c2nc4ccccc4nc2n3Cc2ccco2)cc1 [MLS000079944]

Compound | IC50
CCn1nc(-c2ccccc2)nc2c(=O)n(C)c(=O)nc1-2 [1-Ethyl-6-methyl-3-phenyl-1H-pyrimido[5,4-e][1,2,4]triazine-5,7-dione] | 0.223 µM
